{"source": "patent US20250228797A1", "about": "“SYNERGIC AND STABLE PHARMACEUTICAL COMPOSITION OF AN NSAID AND AN OPIOID ANALGESIC FOR PAIN AND INFLAMMATION” (LABORATORIOS SILANES, S.A. DE C.V., priority 2024, published 2025)", "origin": "cited, not measured here", "key": {"[1]": {"system": "moderate to severe post-operatory pain", "conditions": "intravenous or intramuscular"}, "[2]": {"conditions": "in vivo"}}}
{"smiles": "COc1cccc([C@@]2(O)CCCC[C@@H]2CN(C)C)c1", "note": "[tramadol, (1R,2R)-2-[(dimethylamino)methyl]-1-(3-methoxyphenyl)cyclohexan-1-ol]", "values": [{"measurement": "Analgesic potency relative to nalbuphine", "setting": "[1]", "result": "one-fifth"}, {"measurement": "Analgesic potency relative to pethidine (meperidine)", "setting": "[1]", "result": "equivalent"}, {"measurement": "Incidence of serious adverse reactions", "setting": "[2]", "result": "less than 1%"}]}
